target: T1, human TRPM8 (Homo sapiens, UniProt Q7Z2W7); assay: Luminescence readout assay for measuring intracellular calcium (aequorin, CHO cells expressing human TRPM8; icilin, L-menthol or cold activation); type: cell-based; conditions: CHO cells expressing human TRPM8, icilin activation (1 μM), aequorin luminescence; read-out: hTRPM8 IC50
T1 construct: expressed in transfected cells; host or cells: Chinese hamster ovary (CHO) cells, T-REx tetracycline-inducible expression system (Invitrogen); co-transfected with pcDNA3.1 aequorin
Summary of the method: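 Activation was by 1 μM icilin, 100 μM L-menthol (test compound 2.5 min ahead) or cold buffer below 10° C (compound 1 min ahead). Calcium rise measured as aequorin luminescence in CHO cells with tetracycline-inducible human TRPM8.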

T1 sequence (Q7Z2W7 whole entry): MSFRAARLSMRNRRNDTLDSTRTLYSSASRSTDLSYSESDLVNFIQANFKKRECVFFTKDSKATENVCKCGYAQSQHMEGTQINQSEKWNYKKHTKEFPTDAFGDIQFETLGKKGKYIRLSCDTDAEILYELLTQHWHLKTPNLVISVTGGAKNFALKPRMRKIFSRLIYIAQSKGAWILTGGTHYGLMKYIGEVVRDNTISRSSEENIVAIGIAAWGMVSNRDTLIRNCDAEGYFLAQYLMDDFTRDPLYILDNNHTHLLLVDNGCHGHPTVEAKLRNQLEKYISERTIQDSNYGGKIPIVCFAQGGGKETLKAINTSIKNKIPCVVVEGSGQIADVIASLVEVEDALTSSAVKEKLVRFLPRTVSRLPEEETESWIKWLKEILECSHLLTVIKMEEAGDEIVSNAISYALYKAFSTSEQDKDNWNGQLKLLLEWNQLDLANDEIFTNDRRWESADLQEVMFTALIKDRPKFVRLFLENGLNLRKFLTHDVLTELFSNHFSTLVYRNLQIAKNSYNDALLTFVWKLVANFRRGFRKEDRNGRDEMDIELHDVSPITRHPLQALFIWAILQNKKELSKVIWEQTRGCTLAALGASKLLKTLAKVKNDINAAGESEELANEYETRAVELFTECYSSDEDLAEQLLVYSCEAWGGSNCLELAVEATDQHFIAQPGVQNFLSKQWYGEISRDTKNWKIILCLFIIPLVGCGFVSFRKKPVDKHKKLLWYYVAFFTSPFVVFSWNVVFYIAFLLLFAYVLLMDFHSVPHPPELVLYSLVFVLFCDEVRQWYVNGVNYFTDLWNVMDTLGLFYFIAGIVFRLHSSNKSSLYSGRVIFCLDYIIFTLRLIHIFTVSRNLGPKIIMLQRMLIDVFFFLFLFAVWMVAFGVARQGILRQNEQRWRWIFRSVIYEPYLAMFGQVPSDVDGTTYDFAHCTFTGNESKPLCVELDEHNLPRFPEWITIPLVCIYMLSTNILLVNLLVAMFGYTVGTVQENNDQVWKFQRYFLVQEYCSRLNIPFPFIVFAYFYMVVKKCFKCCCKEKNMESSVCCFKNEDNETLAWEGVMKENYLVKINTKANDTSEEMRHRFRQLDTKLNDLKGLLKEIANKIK

Point of comparison: CCOC(=O)c1ncc(C(=O)N[C@]2(c3ccc(OC(F)(F)F)c(F)c3)CCOc3cccnc32)[nH]1 [Example 162], IC50 92 nM. Against it:
- COc1cc(-c2ccc([C@@]3(NC(=O)c4ccc(F)cc4)CCOc4cccnc43)cc2)ccn1 [Example 146, (S)-4-fluoro-N-(4-(4-(2-methoxypyridin-4-yl)phenyl)-3,4-dihydro-2H-pyrano[3,2-b]pyridin-4-yl)benzamide] — within 1.5-fold, 88 nM
- Nc1ccc(-c2ccc([C@@]3(NC(=O)c4ccc(F)cc4)CCOc4cccnc43)cc2)cc1 [Example 147, (S)-N-(4-(4′-amino-[1,1′-biphenyl]-4-yl)-3,4-dihydro-2H-pyrano[3,2-b]pyridin-4-yl)-4-fluorobenzamide] — 17-fold higher, 1530 nM
- Cc1ccc(-c2ccc([C@@]3(NC(=O)c4ccc(F)cc4)CCOc4cccnc43)cc2)cc1N [Example 148, (S)-N-(4-(3′-amino-4′-methyl-[1,1′-biphenyl]-4-yl)-3,4-dihydro-2H-pyrano[3,2-b]pyridin-4-yl)-4-fluorobenzamide] — 8.4-fold higher, 770 nM
- COc1ncc(-c2ccc([C@@]3(NC(=O)c4ccc(F)cc4)CCOc4cccnc43)cc2)c(OC)n1 [Example 149, (S)-N-(4-(4-(2,4-dimethoxypyrimidin-5-yl)phenyl)-3,4-dihydro-2H-pyrano[3,2-b]pyridin-4-yl)-4-fluorobenzamide] — 3.2-fold higher, 299 nM
- Cc1nnc(-c2cccc(-c3ccc([C@@]4(NC(=O)c5ccc(F)cc5)CCOc5cccnc54)cc3)c2)o1 [Example 150, (S)-4-fluoro-N-(4-(3′-(5-methyl-1,3,4-oxadiazol-2-yl)-[1,1′-biphenyl]-4-yl)-3,4-dihydro-2H-pyrano[3,2-b]pyridin-4-yl)benzamide] — 13-fold higher, 1190 nM
- O=C(N[C@]1(c2ccc(-c3ccc(CO)cc3)cc2)CCOc2cccnc21)c1ccc(F)cc1 [Example 151, (S)-4-fluoro-N-(4-(4′-(hydroxymethyl)-[1,1′-biphenyl]-4-yl)-3,4-dihydro-2H-pyrano[3,2-b]pyridin-4-yl)benzamide] — 18-fold higher, 1640 nM
- CC(C)(C)[S@@+]([O-])N[C@]1(c2ccc(OC(F)(F)F)c(F)c2)CCOc2cccnc21 [Example 152, (R)—N—((S)-4-(3-fluoro-4-(trifluoromethoxy)phenyl)-3,4-dihydro-2H-pyrano[3,2-b]pyridin-4-yl)-2-methylpropane-2-sulfinamide] — 26-fold higher, 2400 nM
- N#Cc1ccc(-c2ccc([C@@]3(NC(=O)c4ccc(F)cc4)CCOc4cccnc43)cc2)cc1 [Example 153, (S)—N-(4-(4′-cyano-[1,1′-biphenyl]-4-yl)-3,4-dihydro-2H-pyrano[3,2-b]pyridin-4-yl)-4-fluorobenzamide] — within 1.5-fold, 112 nM
- N#Cc1ccc(-c2ccc([C@@]3(NC(=O)c4ccccc4)CCOc4cccnc43)cc2)cc1 [Example 154, (S)—N-(4-(4′-cyano-[1,1′-biphenyl]-4-yl)-3,4-dihydro-2H-pyrano[3,2-b]pyridin-4-yl)benzamide] — within 1.5-fold, 91 nM
- CC(=O)c1ccc(C(=O)N[C@]2(c3ccc(OC(F)(F)F)c(F)c3)CCOc3cccnc32)cc1 [Example 156, (S)-4-acetyl-N-(4-(3-fluoro-4-(trifluoromethoxy)phenyl)-3,4-dihydro-2H-pyrano[3,2-b]pyridin-4-yl)benzamide] — 12-fold lower, 8 nM
- O=C(N[C@]1(c2ccc(OC(F)(F)F)c(F)c2)CCOc2cccnc21)c1ccc(C(=O)C(F)(F)F)cc1 [Example 160, (S)—N-(4-(3-fluoro-4-(trifluoromethoxy)phenyl)-3,4-dihydro-2H-pyrano[3,2-b]pyridin-4-yl)-4-(2,2,2-trifluoroacetyl)benzamide 2,2,2-trifluoroacetate] — 2.4-fold lower, 39 nM
- O=C(O)c1ccc(C(=O)N[C@@]2(c3ccc(OC(F)(F)F)c(F)c3)COc3cccnc32)nc1 [Example 161, (R)-6-((3-(3-Fluoro-4-(trifluoromethoxy)phenyl)-2,3-dihydrofuro[3,2-b]pyridin-3-yl)carbamoyl)nicotinic acid] — 2.2-fold lower, 42 nM
- Cn1cncc1C(=O)N[C@]1(c2ccc(OC(F)(F)F)c(F)c2)CCOc2cccnc21 [Example 163, (S)—N-(4-(3-fluoro-4-(trifluoromethoxy)phenyl)-3,4-dihydro-2H-pyrano[3,2-b]pyridin-4-yl)-1-methyl-1H-imidazole-5-carboxamide 2,2,2-trifluoroacetate] — within 1.5-fold, 102 nM
- O=C(N[C@]1(c2ccc(OC(F)(F)F)c(F)c2)CCOc2nccnc21)c1ccc(=O)[nH]c1 [Example 164, (S)-N-(8-(3-fluoro-4-(trifluoromethoxy)phenyl)-7,8-dihydro-6H-pyrano[2,3-b]pyrazin-8-yl)-6-oxo-1,6-dihydropyridine-3-carboxamide] — 24-fold higher, 2230 nM
- O=C(N[C@]1(c2ccc(OC(F)(F)F)c(F)c2)CC(=O)c2cccnc21)c1ccc(=O)[nH]c1 [Example 165, (S)-N-(7-(3-fluoro-4-(trifluoromethoxy)phenyl)-5-oxo-6,7-dihydro-5H-cyclopenta[b]pyridin-7-yl)-6-oxo-1,6-dihydropyridine-3-carboxamide] — 5.8-fold higher, 531 nM
- Cc1cc(C(=O)N[C@]2(c3ccc(OC(F)(F)F)c(F)c3)CCOc3cccnc32)ncc1Br [Example 166, (S)-5-bromo-N-(4-(3-fluoro-4-(trifluoromethoxy)phenyl)-3,4-dihydro-2H-pyrano[3,2-b]pyridin-4-yl)-4-methylpicolin amide] — 9.2-fold lower, 10 nM
- Cc1cc(C(=O)N[C@]2(c3ccc(OC(F)(F)F)c(F)c3)CCOc3cccnc32)ccc1Br [Example 167, (S)-4-bromo-N-(4-(3-fluoro-4-(trifluoromethoxy)phenyl)-3,4-dihydro-2H-pyrano [3,2-b]pyridin-4-yl)-3-methylbenzamide] — 4.8-fold lower, 19 nM
- CC1(C)COC(c2ccc(C(=O)N[C@]3(c4ccc(OC(F)(F)F)c(F)c4)CCOc4cccnc43)cc2)=N1 [Example 168, (S)-4-(4,4-dimethyl-4,5-dihydrooxazol-2-yl)-N-(4-(3-fluoro-4-(trifluoromethoxy)phenyl)-3,4-dihydro-2H-pyrano[3,2-b]pyridin-4-yl)benzamide] — 1.6-fold higher, 146 nM
- CCOC(=O)c1ccc(C(=O)N[C@]2(c3ccc(OC(F)(F)F)c(F)c3)CCOc3cccnc32)nc1C [Example 169, (S)-ethyl 6-((4-(3-fluoro-4-(trifluoromethoxy)phenyl)-3,4-dihydro-2H-pyrano[3,2-b]pyridin-4-yl)carbamoyl)-2-methylnicotinate] — 2.9-fold lower, 32 nM
- N#Cc1ccc(C(=O)N[C@]2(c3ccc(OC(F)(F)F)c(F)c3)CCOc3cccnc32)nc1 [Example 171, (S)-5-cyano-N-(4-(3-fluoro-4-(trifluoromethoxy)phenyl)-3,4-dihydro-2H-pyrano[3,2-b]pyridin-4-yl) picolinamide] — 7.7-fold lower, 12 nM
- COC(=O)c1ccc(C(=O)N[C@]2(c3ccc(C(F)(F)F)c(F)c3)CCOc3cccnc32)nc1 [Example 172, (S)-methyl 6-((4-(3-fluoro-4-(trifluoromethyl)phenyl)-3,4-dihydro-2H-pyrano[3,2-b]pyridin-4-yl)carbamoyl) nicotinate] — 4.2-fold lower, 22 nM
- O=C(N[C@]1(c2ccc(OC(F)(F)F)cc2F)CCOc2cccnc21)c1ccc(=O)[nH]c1 [Example 173, (S)-N-(4-(2-fluoro-4-(trifluoromethoxy)phenyl)-3,4-dihydro-2H-pyrano[3,2-b]pyridin-4-yl)-6-oxo-1,6-dihydropyridine-3-carboxamide] — 5.2-fold higher, 475 nM
- COC(=O)c1ccc(C(=O)N[C@]2(c3ccc(OC(F)(F)F)cc3F)CCOc3cccnc32)nc1 [Example 174, (S)-methyl 6-((4-(2-fluoro-4-(trifluoromethoxy)phenyl)-3,4-dihydro-2H-pyrano[3,2-b]pyridin-4-yl)carbamoyl) nicotinate] — within 1.5-fold, 128 nM
- COC(=O)c1ccc(C(=O)N[C@]2(c3ccc(C(F)(F)F)cc3)CCOc3cccnc32)nc1 [Example 175, (S)-methyl 6-((4-(4-(trifluoromethyl)phenyl)-3,4-dihydro-2H-pyrano[3,2-b]pyridin-4-yl)carbamoyl) nicotinate] — 2.1-fold lower, 43 nM
- COC(=O)c1ccc(C(=O)N[C@]2(c3ccc(OC(F)(F)F)cc3)CCOc3cccnc32)nc1 [Example 176, (S)-methyl 6-((4-(4-(trifluoromethoxy)phenyl)-3,4-dihydro-2H-pyrano[3,2-b]pyridin-4-yl)carbamoyl) nicotinate] — 1.7-fold lower, 54 nM
- O=C(O)c1cnc(C(=O)N[C@]2(c3ccc(OC(F)(F)F)c(F)c3)CCOc3cccnc32)cn1 [Example 177, (S)-5-((4-(3-fluoro-4-(trifluoromethoxy)phenyl)-3,4-dihydro-2H-pyrano[3,2-b]pyridin-4-yl)carbamoyl) pyrazine-2-carboxylic acid] — 2.3-fold higher, 209 nM
- O=C(O)c1cccc(C(=O)N[C@]2(c3ccc(OC(F)(F)F)c(F)c3)CCOc3cccnc32)c1 [Example 178, (S)-3-((4-(3-fluoro-4-(trifluoromethoxy)phenyl)-3,4-dihydro-2H-pyrano[3,2-b]pyridin-4-yl)carbamoyl) benzoic acid] — within 1.5-fold, 72 nM
- Cn1cnc(C(=O)N[C@]2(c3ccc(OC(F)(F)F)c(F)c3)CCOc3cccnc32)c1 [Example 179, (S)-N-(4-(3-fluoro-4-(trifluoromethoxy)phenyl)-3,4-dihydro-2H-pyrano[3,2-b]pyridin-4-yl)-1-methyl-1H-imidazole-4-carboxamide] — 3.3-fold higher, 305 nM
- Cn1c(C(=O)N[C@]2(c3ccc(OC(F)(F)F)c(F)c3)CCOc3cccnc32)cnc1Br [Example 180, (S)-2-bromo-N-(4-(3-fluoro-4-(trifluoromethoxy)phenyl)-3,4-dihydro-2H-pyrano[3,2-b]pyridin-4-yl)-1-methyl-1H-imidazole-5-carboxamide] — 2.9-fold lower, 32 nM
- COC(=O)c1c(C)cc(C(=O)N[C@]2(c3ccc(OC(F)(F)F)c(F)c3)CCOc3cccnc32)cc1C [Example 181, (S)-methyl 4-((4-(3-fluoro-4-(trifluoromethoxy)phenyl)-3,4-dihydro-2H-pyrano[3,2-b]pyridin-4-yl)carbamoyl)-2,6-dimethylbenzoate] — 6.6-fold lower, 14 nM
